Results: PMC10987348, “Ammonium nanochelators in conjunction with arginine-specific enzymes in amperometric biosensors for arginine assay” (Mikrochimica Acta, 2023)

Target: T1, ADI (Metamycoplasma hominis, UniProt P41141)
T1 construct: gene arcA
Test: amperometric detection of released ammonium (ADI/nCdCu/GCE electrode)
Assay type: biochemical
Conditions: immobilised enzyme on nCdCu-modified glassy carbon; pH 7.5; -200 mV vs Ag/AgCl

T1 sequence (P41141 2-409): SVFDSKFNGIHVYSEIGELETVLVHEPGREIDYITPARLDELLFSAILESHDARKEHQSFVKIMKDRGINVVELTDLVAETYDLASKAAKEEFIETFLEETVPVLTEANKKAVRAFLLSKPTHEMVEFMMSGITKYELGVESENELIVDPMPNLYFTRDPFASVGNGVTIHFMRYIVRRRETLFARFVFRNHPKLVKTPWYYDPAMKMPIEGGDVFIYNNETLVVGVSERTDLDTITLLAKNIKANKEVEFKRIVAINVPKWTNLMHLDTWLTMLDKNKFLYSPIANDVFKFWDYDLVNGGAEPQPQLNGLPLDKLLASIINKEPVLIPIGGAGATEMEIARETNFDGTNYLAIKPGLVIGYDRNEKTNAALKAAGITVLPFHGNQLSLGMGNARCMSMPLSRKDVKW

## N=C(N)NCCC[C@H](N)C(=O)O [L-arginine]
  amperometric detection of released ammonium (ADI/nCdCu/GCE electrode): electrocatalytic activity of three bioelectrodes was evaluated by using CV under the addition of Arg
